# Literature values, collected in patent US20040115261A1, “Controlled delivery of tetracycline compounds and tetracycline derivatives” (priority 2003, published 2004).
# Conditions: based on steady-state pharmacokinetics, minimum antibiotic serum concentration = lowest concentration known to exert a significant antibiotic effect
compound,measurement,value
CN(C)[C@@H]1C(O)=C(C(N)=O)C(=O)[C@@]2(O)C(O)=C3C(=O)c4c(O)cccc4[C@@](C)(O)[C@H]3C[C@@H]12 [tetracycline],plasma antibiotic threshold level,0.5 µg/mL
